The target in one series is T1, CCR-5 (Homo sapiens, UniProt P51681).
T1 construct: expressed in transfected cells; host or cells: L1.2 cells (CCR-5/L1.2 transfectants), membranes
As to the kind of experiment: 125I-gp120/sCD4/CCR-5 receptor binding assay. Conditions: membranes from CCR-5/L 1.2 cells, 3 nM sCD4, 0.1 nM 125I-gp120 (HIV-1 JR-FL); read-out: IC50 for inhibition of binding of sCD-4/GP-120 to CCR-5. On the procedure: CCR-5 Receptor Binding Assay The compounds of the present invention were evaluated using the following CCR-5 receptor binding assay. The ^125I-gp120/sCD4/CCR-5 binding assay was carried out similarly as described in Wu et al., Nature, 1996;384:179-183. Briefly, the envelope gp120 protein derived from HIV-1 JR-FL (Trkola et al., Nature, 1996;384:184-186), an M-tropic strain, was iodinated using solid phase lactoperoxidase to a specific activity of 20 μCi/μg. For each binding reaction (in a final volume of 100 μL binding buffer [50 mM HEPES, pH 7.5, 1 mM CaCl2, 5 mM MgCl2, and 0.5% BSA]), 25 μL (2.5 μg) of membranes prepared from CCR-5/L 1.2 cells were mixed with 25 μL (3 nM) sCD4, followed by 25 μL (0.1 nM) radio-labeled gp120 in the presence or absence of 25 μL compound dissolved in DMSO (final concentration of DMSO 0.5%). The reactions were incubated at room temperature for 45 to 60 minutes and stopped by transferring the mixture to GFB filter plates, which were then washed 3 to 4 times with binding buffer containing 0.5 M NaCl. The plates were dried and MicroScint scintillation fluid was added before counting. […] The compounds of Examples 56 and 66 had IC50s of about […]. […] Preferred compounds can inhibit the binding of sCD-4/GP-120 to CCR-5 with IC50s of about 10 μM to about 100 μM or about 1 nM to about 10 μM

T1 sequence (P51681 whole entry): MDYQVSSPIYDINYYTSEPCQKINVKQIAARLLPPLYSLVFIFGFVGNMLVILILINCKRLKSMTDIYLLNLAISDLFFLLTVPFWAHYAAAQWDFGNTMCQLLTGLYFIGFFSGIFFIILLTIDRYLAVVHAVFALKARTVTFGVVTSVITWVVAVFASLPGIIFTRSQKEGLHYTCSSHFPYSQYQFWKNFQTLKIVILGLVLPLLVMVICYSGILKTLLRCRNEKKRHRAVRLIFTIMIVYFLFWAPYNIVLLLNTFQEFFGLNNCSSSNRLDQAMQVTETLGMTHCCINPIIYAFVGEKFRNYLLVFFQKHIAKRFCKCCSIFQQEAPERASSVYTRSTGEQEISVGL

The melting point is the temperature of the solid-liquid transition. The compound `CCN(CC)CCOc1ccc2c(c1)c(C(=O)OCc1ccccc1)c(C)n2Cc1ccccc1` [Example 7, 1-Benzyl-5-(2-diethylamino-ethoxy)-2-methyl-1H-indole-3-carboxylic acid benzyl ester] displayed a melting point of 74 to 76 °C. Further, the IC50 on CCR-5 was found to be 18.2 µM.

For `CCN(CC)CCc1ccc2[nH]c(C)c(C(=O)OCc3ccccc3)c2c1.Cl` [Example 72, 5-(2-Diethylamino-ethyl)-2-methyl-1H-indole-3-carboxylic acid benzyl ester hydrochloride], the melting point was in the range of 130 to 134 °C. For the same compound, the IC50 on CCR-5 turned out to be 1.93 ± 0.32 µM.
